Assay [1] deals with Near full length human DGKα(S9-S727) (Homo sapiens (Human), UniProt P23743). Put plainly: DGKα (Near Full Length) ADP Glo assay. The assay is classed as biochemical. The following applies: extruded liposomes 5% or 10% DAG, 150 μM ATP, 5 nM enzyme; read-out: Near Full Length DGKalpha ADPGLO IC50. The protocol:
The reactions were carried out at 150 μM ATP.
Luminescence was recorded using an EnVision microplate reader.

Another assay deals with DGKα-YFP in Jurkat cells (Homo sapiens (Human), UniProt P23743). Put plainly: In vitro DGKα translocation assay. The class given is cell-based. To be noted: 1 hour at 37° C., top concentration 10 μM, read-out: DGKalpha Translocation EC50. An excerpt:
Jurkat cells were transduced with lentiviral constructs overexpressing DGKα-YFP (N-terminal tagged), selected by puromycin, and were FACs sorted to establish stable lines expressing each isoform (Jurkat-DGKα-YFP=BXA-212700-01-001, Jurkat-DGKz-YFP=BXA-212701-01-001). Cell lines were maintained in growth media (RPMI supplemented with 10% FBS and pen/strep). All translocation assays were run in assay media (RPMI supplemented with 10% FBS and no antibiotics).
For translocation assays cells were plated onto Perkin Elmer CellCarrier-384 Ultra Microplates (Perkin Elmer cat #6057500) at a density of 30,000 cells/well, in a volume of 40 μL of assay media. Compounds were then transferred to the cells by an Echo Acoustic Liquid Handler (Echo 655). […] Treated cells were then incubated at 37° C. for 1 hour. Cells were then fixed with 4% formaldehyde (Thermo cat #28906) for 15 minutes, centrifuged briefly to increase cell retention (250 rpm for 5 minutes), and then washed 3× with 50 μL PBS. Cells were then stained with Hoechst, and washed 2× with 50 ul PBS. Next, 50 μL PBS was added to each well, plates were sealed, and plates were imaged on an Opera Phenix High Content screening system. Imaging was done with the 40× water objective. The YFP channel was set at 100% power for […], 10 regions/well were imaged and analyzed. Data analysis was done with Columbus Image Analysis software (Perk-in Elmer).

The next assay addresses Full length human DGKα (Homo sapiens (Human), UniProt P23743).

Data on 13 molecules can be found in patent US20260049068A1, “Substituted Tetrazolyl Compounds Useful as T Cell Activators” (BRISTOL-MYERS SQUIBB COMPANY, priority 2022, published 2026).

pEC50, pIC50: −log10 of the molar value.

Near full length human DGKα(S9-S727), sequence (P23743 9-727): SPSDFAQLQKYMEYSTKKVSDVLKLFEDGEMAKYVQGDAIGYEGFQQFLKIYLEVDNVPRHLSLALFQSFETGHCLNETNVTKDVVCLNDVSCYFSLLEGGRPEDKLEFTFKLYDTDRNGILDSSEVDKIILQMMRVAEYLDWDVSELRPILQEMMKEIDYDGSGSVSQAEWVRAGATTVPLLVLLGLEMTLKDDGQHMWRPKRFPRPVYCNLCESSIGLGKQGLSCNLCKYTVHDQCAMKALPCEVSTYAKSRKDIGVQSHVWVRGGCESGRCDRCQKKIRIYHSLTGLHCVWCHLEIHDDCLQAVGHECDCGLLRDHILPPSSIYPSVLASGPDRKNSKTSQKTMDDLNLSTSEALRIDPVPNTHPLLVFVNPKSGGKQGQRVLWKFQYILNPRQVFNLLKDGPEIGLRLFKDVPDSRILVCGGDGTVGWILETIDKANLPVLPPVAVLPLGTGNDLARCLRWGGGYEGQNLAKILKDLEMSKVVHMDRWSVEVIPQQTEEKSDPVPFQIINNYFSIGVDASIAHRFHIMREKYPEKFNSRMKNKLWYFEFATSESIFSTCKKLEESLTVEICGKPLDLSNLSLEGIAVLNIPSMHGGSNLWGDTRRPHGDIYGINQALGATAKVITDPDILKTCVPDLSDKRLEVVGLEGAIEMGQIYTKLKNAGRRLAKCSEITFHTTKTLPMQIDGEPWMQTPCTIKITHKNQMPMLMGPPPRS
DGKα-YFP in Jurkat cells, sequence (P23743 whole entry, canonical isoform): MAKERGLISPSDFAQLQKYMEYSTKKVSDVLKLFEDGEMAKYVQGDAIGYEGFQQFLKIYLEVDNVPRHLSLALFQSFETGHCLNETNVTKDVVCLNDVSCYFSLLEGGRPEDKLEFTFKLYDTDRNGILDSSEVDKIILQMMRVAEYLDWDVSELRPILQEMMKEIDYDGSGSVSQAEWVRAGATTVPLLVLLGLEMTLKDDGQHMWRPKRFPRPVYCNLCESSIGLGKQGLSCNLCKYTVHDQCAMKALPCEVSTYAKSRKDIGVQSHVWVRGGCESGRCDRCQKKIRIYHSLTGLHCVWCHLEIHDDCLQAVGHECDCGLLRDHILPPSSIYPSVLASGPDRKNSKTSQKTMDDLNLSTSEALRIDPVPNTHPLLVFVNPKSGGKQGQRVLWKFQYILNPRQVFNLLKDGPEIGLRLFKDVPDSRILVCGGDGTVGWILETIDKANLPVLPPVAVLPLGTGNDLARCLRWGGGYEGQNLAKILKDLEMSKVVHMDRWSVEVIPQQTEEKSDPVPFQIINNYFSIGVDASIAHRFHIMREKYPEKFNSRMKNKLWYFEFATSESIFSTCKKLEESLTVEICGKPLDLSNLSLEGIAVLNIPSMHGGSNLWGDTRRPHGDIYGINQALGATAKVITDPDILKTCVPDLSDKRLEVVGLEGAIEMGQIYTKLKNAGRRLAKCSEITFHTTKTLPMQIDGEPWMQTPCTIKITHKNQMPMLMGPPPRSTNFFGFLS
Full length human DGKα, sequence (P23743 other isoform, or with tags, fused parts or gaps): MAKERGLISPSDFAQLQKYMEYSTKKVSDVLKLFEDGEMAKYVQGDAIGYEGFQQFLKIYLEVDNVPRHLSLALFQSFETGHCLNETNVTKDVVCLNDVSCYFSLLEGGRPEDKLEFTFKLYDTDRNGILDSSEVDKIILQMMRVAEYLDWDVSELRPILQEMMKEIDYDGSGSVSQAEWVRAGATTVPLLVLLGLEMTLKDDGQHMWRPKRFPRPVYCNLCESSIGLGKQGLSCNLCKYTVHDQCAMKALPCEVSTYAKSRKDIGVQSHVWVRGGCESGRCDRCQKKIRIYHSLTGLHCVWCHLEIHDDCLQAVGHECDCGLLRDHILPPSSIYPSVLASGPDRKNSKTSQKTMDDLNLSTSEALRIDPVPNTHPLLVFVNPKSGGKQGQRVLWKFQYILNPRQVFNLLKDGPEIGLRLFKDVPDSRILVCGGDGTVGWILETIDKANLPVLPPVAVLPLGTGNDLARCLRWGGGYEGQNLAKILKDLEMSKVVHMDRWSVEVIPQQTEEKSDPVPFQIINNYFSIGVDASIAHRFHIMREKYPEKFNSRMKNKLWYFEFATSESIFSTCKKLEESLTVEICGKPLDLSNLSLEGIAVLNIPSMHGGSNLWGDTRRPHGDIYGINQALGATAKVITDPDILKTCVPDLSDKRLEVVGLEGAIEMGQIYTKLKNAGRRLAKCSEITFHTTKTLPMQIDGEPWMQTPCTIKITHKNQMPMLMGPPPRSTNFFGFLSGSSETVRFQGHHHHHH

With `CC(C)N(C)Cc1nnnn1-c1ccc(Cl)c(C#N)c1` [Example 11, 2-chloro-5-(5-((isopropyl(methyl)amino)methyl)-1H-tetrazol-1-yl)benzonitrile], the negative logarithm of the IC50 (pIC50) in assay [1] was 5.07; on Full length human DGKα it was 5.06. The pEC50 at DGKα-YFP in Jurkat cells was below 5.00.

For the molecule `CC(C)N(Cc1nnnn1-c1ccc(Cl)c(C#N)c1)C1CCCCC1` [Example 12, 2-chloro-5-(5-((cyclohexyl(isopropyl)amino)methyl)-1H-tetrazol-1-yl)benzonitrile], the negative-log IC50 (pIC50) is 4.96 in assay [1] and 5.10 on Full length human DGKα. Moreover, at DGKα-YFP in Jurkat cells, the pEC50 is 5.77.

In the case of `CCN(Cc1nnnn1-c1ccc(Cl)c(C#N)c1)C1CCCCC1` [Example 13, 2-chloro-5-(5-((cyclohexyl(ethyl)amino)methyl)-1H-tetrazol-1-yl)benzonitrile], the values for the pIC50 (in assay [1]; at Full length human DGKα) were 7.10 and 7.05, respectively. For the same molecule, at DGKα-YFP in Jurkat cells, the negative-log EC50 (pEC50) was 6.92.

As for `CN(Cc1nnnn1-c1ccc(Cl)c(C#N)n1)C1CCCCC1` [Example 14, 3-chloro-6-(5-((cyclohexyl(methyl)amino)methyl)-1H-tetrazol-1-yl)picolinonitrile], the negative logarithm of the IC50 (pIC50) is 5.96 in assay [1] and 5.70 on Full length human DGKα. In addition, the negative logarithm of the EC50 (pEC50) at DGKα-YFP in Jurkat cells was 5.74.

In the case of `N#Cc1nc(-n2nnnc2CN(CC2CC2)C2CCCCC2)ccc1Cl` [Example 15, 3-chloro-6-(5-((cyclohexyl (cyclopropylmethyl)amino)methyl)-1H-tetrazol-1-yl) picolinonitrile], the pIC50 is 5.37 in assay [1] and 5.51 against Full length human DGKα. In addition, the pEC50 at DGKα-YFP in Jurkat cells was 5.68.

Consider `CCN(Cc1nnnn1-c1ccc(Cl)c(C#N)n1)C1CCCCC1` [Example 16, 3-chloro-6-(5-((cyclohexyl(ethyl)amino)methyl)-1H-tetrazol-1-yl)picolinonitrile], for which the values for the pIC50 (in assay [1]; against Full length human DGKα) were 5.59 and 5.57, respectively. Besides, at DGKα-YFP in Jurkat cells, the pEC50 is below 5.00.

For `CN(Cc1nnnn1-c1cccc(C(F)(F)F)c1)C1CCCCC1` [Example 18, N-methyl-N-((1-(3-(trifluoromethyl)phenyl)-1H-tetrazol-5-yl)methyl) cyclohexanamine], the negative logarithm of the IC50 (pIC50) in assay [1] was 4.96; against Full length human DGKα, 5.01. In addition, at DGKα-YFP in Jurkat cells, the pEC50 is below 5.30.

Regarding `CN(Cc1nnnn1-c1cccc(F)c1)C1CCCCC1` [Example 19, N-((1-(3-fluorophenyl)-1H-tetrazol-5-yl)methyl)-N-methylcyclohexanamine], the negative logarithm of the IC50 (pIC50) is 5.24 in assay [1] and 5.28 against Full length human DGKα. Also, on DGKα-YFP in Jurkat cells, the negative-log EC50 (pEC50) was below 5.30.

With `CN(Cc1nnnn1-c1ccc(F)c(C#N)c1)C1CCCCC1` [Example 21, 5-(5-((cyclohexyl (methyl)amino)methyl)-1H-tetrazol-1-yl)-2-fluorobenzonitrile], the figures for the pIC50 (in assay [1]; on Full length human DGKα) were 5.51 and 5.43, respectively. Besides, at DGKα-YFP in Jurkat cells, the negative logarithm of the EC50 (pEC50) was 5.92.

For the molecule `CN(Cc1nnnn1-c1ccc(C(F)(F)F)nc1)C1CCCCC1` [Example 23, N-methyl-N-((1-(6-(trifluormethyl)pyridin-3-yl)-1H-tetrazol-5-yl)methyl) cyclohexanamine], the pIC50 in assay [1] was 5.44; against Full length human DGKα, 5.19. Moreover, the negative-log EC50 (pEC50) at DGKα-YFP in Jurkat cells was below 5.30.

Take `COc1ccc(-n2nnnc2CN(C)C2CCCCC2)cc1C#N` [Example 24, 5-(5-((cyclohexyl(methyl)amino)methyl)-1H-tetrazol-1-yl)-2-methoxybenzonitrile]: the figures for the pIC50 (in assay [1]; on Full length human DGKα) were 6.07 and 6.05, respectively. At DGKα-YFP in Jurkat cells, the pEC50 is 5.77.

`Cc1ccc(-n2nnnc2CN(C)C2CCCCC2)cc1C#N` [Example 25, 5-(5-((cyclohexyl(methyl)amino)methyl)-1H-tetrazol-1-yl)-2-methylbenzonitrile]: the negative-log IC50 (pIC50) was 6.39 in assay [1] and 6.85 against Full length human DGKα. In addition, at DGKα-YFP in Jurkat cells, the pEC50 was 6.46.

As to `CN(Cc1nnnn1-c1ccc(Cl)cc1)C1CCCCC1` [Example 29, N-((1-(4-chlorophenyl)-1H-tetrazol-5-yl)methyl)-N-methylcyclohexanamine], the pIC50 is 5.77 in assay [1] and 5.46 on Full length human DGKα. For the same molecule, the negative-log EC50 (pEC50) on DGKα-YFP in Jurkat cells was 6.24.
